PMC4406354 (Journal of bone and mineral research : the official journal …, 2015)
pIC50: −log10 of the molar value.

Target: T1, tissue-nonspecific alkaline phosphatase (TNAP) (Homo sapiens, UniProt P05186)
T1 sequence (P05186 18-501): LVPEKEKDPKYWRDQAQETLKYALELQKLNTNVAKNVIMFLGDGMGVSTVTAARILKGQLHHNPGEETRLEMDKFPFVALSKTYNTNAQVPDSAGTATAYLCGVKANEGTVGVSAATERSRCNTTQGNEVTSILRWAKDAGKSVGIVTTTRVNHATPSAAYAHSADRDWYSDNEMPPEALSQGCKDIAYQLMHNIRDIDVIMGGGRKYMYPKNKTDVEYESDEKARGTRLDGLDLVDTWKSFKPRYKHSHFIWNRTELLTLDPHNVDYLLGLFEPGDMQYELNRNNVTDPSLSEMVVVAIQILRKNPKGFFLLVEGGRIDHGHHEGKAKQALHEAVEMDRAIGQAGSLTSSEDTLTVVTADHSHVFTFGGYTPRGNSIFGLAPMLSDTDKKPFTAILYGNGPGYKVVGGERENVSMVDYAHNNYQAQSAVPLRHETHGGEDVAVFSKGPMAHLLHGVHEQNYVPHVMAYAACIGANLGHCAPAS
Assay: in vitro TNAP inhibition IC50
Assay type: biochemical

pIC50: 7.85
Structure (SMILES): COc1ccc(Cl)cc1S(=O)(=O)Nc1cncc(C(N)=O)c1 [SBI-425]
